Laboratory results: patent US20210275447A1, “SUSTAINED-RELEASE OPHTHALMIC PHARMACEUTICAL COMPOSITIONS AND USES THEREOF” (TAIWAN LIPOSOME CO., LTD., priority 2018, published 2021)
Where a name gives a salt, the structure may show the parent alone.

What was measured:
[1] = Drug loading of liposomes by remote loading: drug to lipid molar ratio and encapsulation efficiency; format: physicochemical; settings: 300 mM AS, 2 mg/mL drug
Procedure: The dry lipid was hydrated in a trapping agent, 300 mM ammonium sulfate (AS), for 30 min at the temperature above the transition temperature to form the MLVs. […] After extrusion, unencapsulated trapping agent was removed by dialysis method or diafiltration method against 9.4% sucrose solution or 0.9% NaCl to create a polyatomic ion gradient between the inner aqueous phase and the outer aqueous phase of the empty liposomes.
A reaction mixture containing 10.0 mg/mL of sunitinib (LC Laboratories, USA), empty liposomes (with 20.0 mM of lipids prepared according to Example 1), and 40 mM histidine buffer (pH 7) was incubated at 40° C. for 15 min The unencapsulated sunitinib of the reaction mixture was removed by a Sephadex™ G-50 Fine gel (GE Healthcare, USA) or dialysis bag (Spectrum Labs, USA) against a 9.4% sucrose solution to obtain a liposomal sunitinib formulation. The encapsulated sunitinib concentration and the lipid concentration of the liposomal sunitinib formulation were measured using an ultraviolet/visible (UV/Vis) spectrophotometer to calculate the drug to lipid molar ratio (D/L) of the liposomal sunitinib formulation.
The encapsulation efficiency was calculated by comparing the drug to lipid molar ratio (D/L) of the liposomal sunitinib formulation to the nominal D/L of the reaction mixture, which is dividing the initial added concentration of sunitinib by the initial added concentration of lipid of empty liposome.
An initial loading concentration of 4.0 mg/mL of sunitinib or sunitinib malate was mixed with the empty liposomes according to the procedures of Example 2.

[2] = In vitro release through dialysis bag in rabbit vitreous humor; format: in vitro ADME; settings: PBS pH 7.4, 37° C., released immediately, FIG. 1
Procedure: Each dialysis bag contained 950 μL of rabbit vitreous humor (Pel-Freez Biologicals, USA) and both ends of the dialysis bags were then sealed. Each dialysis bag was immersed in 25 mL of PBS at pH 7.4 in a 50-mL centrifuge tube and incubated in a water bath at 37±1° C. for 24 hours. At designated time points after incubation (1, 2, 4, 6, 24, 48, 122, 146 and 168 hours), 0.5 mL aliquot from the 25 mL PBS inside each centrifuge tube was sampled and 0.5 mL of fresh PBS was added to replenish the sampled aliquot. Drug concentrations of the sampled aliquots at each time point were analyzed using high performance liquid chromatography (HPLC) to create the in vitro release profile of the liposomal composition.

[3] = liposomes DOPC/cholesterol (66.7/33.3)
[4] = liposomes POPC/cholesterol (66.7/33.3)

SMILES | EE (%), encapsulation efficiency [1, 3] [%] | Purified D/PL (mole/mole) [1, 3] [mole/mole] | EE (%), encapsulation efficiency [1, 4] [%] | Purified D/PL (mole/mole) [1, 4] [mole/mole] | time after which release reached a plateau [2] [h]
Cc1ccc(NC(=O)c2ccc(CN3CCN(C)CC3)cc2)cc1Nc1nccc(-c2cccnc2)n1 [Imatinib, imatinib mesylate] | 91.3 | 1.24 | 66.6 | 0.90 | 
CCN(CC)CCNC(=O)c1c(C)[nH]c(/C=C2\C(=O)Nc3ccc(F)cc32)c1C [free sunitinib, sunitinib] |  |  |  |  | 6
